For 51 compounds, absorption maximum results are on record in the Deep4Chem optical property database.

This data set can be described thus: solvent given as SMILES.

On to `COc1cccc2cc(-c3ccc([N+](=O)[O-])cc3)c(=N)oc12`, for which the absorption maximum by setting is: (in C1CCOC1) 339 nm; (in CC#N) 332 nm; (in CS(C)=O) 335 nm; (in ClC(Cl)Cl) 332 nm.

Consider `c1ccc(-n2c(-c3ccc(-c4ccc5c(c4)C4(c6ccccc6-c6ccccc64)c4cc(-c6ccc(-c7nc8ccccc8n7-c7ccccc7)cc6)c6ccccc6c4-5)cc3)nc3ccccc32)cc1`, for which the absorption maximum (in ClC(Cl)Cl) is 359 nm.

Take `CCN(CC)c1ccc(/N=N/c2cc3c(=O)[nH][nH]c(=O)c3cc2[N+](=O)[O-])c(NC(C)=O)c1`: the absorption maximum was 532 nm (in CC(=O)O), 518 nm (in CN(C)C=O) and 519 nm (in CS(C)=O).

Regarding `CC1=[N+]2C(=C(c3c4ccccc4c(-c4ccccc4)c4ccccc34)c3ccc(C)n3[B-]2(F)F)C=C1`, the absorption maximum reads like this: (in CC#N) 514 nm; (in CCCCCC) 516 nm; (in CCO) 516 nm; (in CN(C)C=O) 517 nm; (in Cc1ccccc1) 519 nm; (in ClCCl) 518 nm.

For `CC(=O)[B-]1(C(C)=O)OC(C)=CC(c2ccc3ccccc3c2)=[O+]1`, the absorption maximum reads like this: (in CC#N) 380 nm; (in ClC(Cl)(Cl)Cl) 380 nm.

The compound `CN(C)c1ccc(/C=C/c2cnc(/C=C/c3ccc(C#N)cc3)o2)cc1` had an absorption maximum (in ClCCl) of 432 nm.

In the case of `c1ccc(N(c2ccccc2)c2ccc(-c3ccc4c(c3)C3(c5ccccc5Sc5ccccc53)c3cc(-c5ccc(N(c6ccccc6)c6ccccc6)cc5)ccc3-4)cc2)cc1`, the absorption maximum (in ClCCl) turned out to be 375 nm.

`COCCC1=Cc2nc1ccc1[nH]c(cc1CCOC)c1nc(c(NC(C)=O)cc3[nH]c2cc3CCOC)C(CCOC)=C1` returned an absorption maximum (in Cc1ccccc1) of 670 nm.

With `Cc1cc(C)c2nc3c(=O)[nH]c(=O)[nH]c3nc2c1`, the absorption maximum (in CC#N) is 350 nm.

For `CN(C)c1ccc(C2=CC3=C(c4ccc([N+](=O)[O-])cc4)[C@H]4c5ccccc5[C@]3(S2)c2ccccc24)cc1`, the absorption maximum (in ClCCl) is recorded as 484 nm.

For the setting “in ClCCl”, `O=C1c2cccc3cc(C#CC#Cc4cc5c6c(cccc6c4)C(=O)N(c4ccccc4)C5=O)cc(c23)C(=O)N1c1ccccc1` came in with an absorption maximum of 326 nm.

Take `O=[N+]([O-])c1cccc(O)c1`: the absorption maximum came to 329 nm (in CO) and 328 nm (in O).

`CCOC(=O)c1c(-c2cc3ccccc3oc2=O)nn(-c2ccc(OC)cc2)c1C(=O)OCC`: the absorption maximum (in ClCCl) was found to be 323 nm.

For `O=C(O)c1ccc2cc3cc(C(=O)O)ccc3cc2c1`, the absorption maximum reads like this: (in C1CCOC1) 409 nm; (in CN(C)C=O) 409 nm.

As for `COc1ccc2c(c1)sc1[n+]2[B-](F)(F)OC(c2ccc(N(C)C)cc2)=N1`, the absorption maximum runs as follows: (in C1CCOC1) 430 nm; (in CC#N) 426 nm; (in CC(C)=O) 431 nm; (in Cc1ccccc1) 427 nm; (in ClCCl) 430 nm.

For the setting “in CC#N”, `Cc1c[nH]c(=O)[nH]c1=O` gave an absorption maximum of 261 nm.

`C[Si]1(C)c2cc(-c3cccs3)ccc2C=Cc2ccc(-c3cccs3)cc21`: the absorption maximum (in ClCCl) is on record as 408 nm.

As for `COC(=O)C[C@H](Cc1c[nH]c2ccccc12)NC(=O)[C@H](CC(=O)N[C@@H](CC1=CCc2ccccc21)C(=O)OC)NC(=O)OC(C)(C)C`, the absorption maximum reads like this: (in CC#N) 280 nm; (in CCOC(C)=O) 280 nm; (in CO) 280 nm.

Regarding `O=C(c1ccc(C(=C(c2ccccc2)c2ccccc2)c2ccccc2)cc1)c1ccc(-n2c3ccccc3c3ccccc32)cc1`, the absorption maximum (in C1CCOC1) is given as 340 nm.

In the case of `N#Cc1nc(-n2c3ccccc3c3ccccc32)cc(-n2c3ccccc3c3ccccc32)n1`, the absorption maximum (in Cc1ccccc1) was 371 nm.

Regarding `CN(C)c1ccc(C2=Nc3sc4cc(C(F)(F)F)ccc4[n+]3[B-](F)(F)O2)cc1`, the absorption maximum was determined as 430 nm (in C1CCOC1); 427 nm (in CC#N); 431 nm (in CC(C)=O); 428 nm (in Cc1ccccc1); 431 nm (in ClCCl).

As to `c1ccc(-c2ccc(-c3cc(-c4ccccn4)nc(-c4ccccn4)c3)cc2)cc1`, the absorption maximum (in ClCCl) is 291 nm.

For `C(=C\c1c2ccccc2cc2ccccc12)/c1c2ccccc2cc2ccccc12`, the absorption maximum (in C1CCOC1) was 400 nm.

For the compound `CN(C)c1ccc(/C=C/c2ccc(C#N)cc2)cc1`, the absorption maximum was found to be 385 nm (in C1CCOC1); 383 nm (in CC#N); 386 nm (in CCCC#N); 378 nm (in CCCCCC); 380 nm (in CCCCOCCCC); 383 nm (in CCO). The absorption maximum (in CCOCC) came to 380 nm.

Turning to `CCCCCCCc1ccc(C2=[N+]3C(=C4c5cc(OCC(CC)CC)c(-c6ccc(CCCCCCC)o6)n5[B-](F)(F)[n+]5c4n(c4cc(C(C)(C)C)ccc45)[B-]3(F)F)C=C2OCC(CC)CC)o1`, the absorption maximum by setting is: (in C1CCOC1) 816 nm; (in ClCCl) 826 nm.

Turning to `Fc1ccc(C#Cc2nc(C#Cc3ccc(F)cc3)c(C#Cc3ccc(F)cc3)c(C#Cc3ccc(F)cc3)c2C#Cc2ccc(F)cc2)cc1`, the absorption maximum (in ClCCl) is given as 407 nm.

`c1ccc2c(c1)-c1ccccc1C21c2ccccc2-c2ccncc21`: for the setting “in CC1CCCO1”, the absorption maximum was 307 nm.

As to `O=c1oc2ccccc2c2c1c(=O)oc1c3ccccc3cc(O)c12`, the absorption maximum by setting is: (in CS(C)=O) 480 nm; (in ClCCl) 447 nm.

Consider `COC(=O)C[C@H](Cc1c[nH]c2ccccc12)NC(=O)[C@H](CC(=O)N[C@@H](CC1=CCc2ccccc21)C(=O)OC)NC(=O)[C@H](Cc1c[nH]c2ccccc12)NC(=O)OC(C)(C)C`, for which the absorption maximum by setting is: (in CC#N) 280 nm; (in CCOC(C)=O) 280 nm; (in CO) 280 nm.

Compound `C(#Cc1ccccc1)C(C#Cc1ccccc1)=Cc1c2ccccc2c(C=C(C#Cc2ccccc2)C#Cc2ccccc2)c2ccccc12` showed an absorption maximum (in ClC(Cl)Cl) of 432 nm.

For the compound `COc1ccc(-c2csc(/C(C#N)=C/c3ccc(C#N)cc3)n2)cc1`, the absorption maximum reads like this: (in CC#N) 389 nm; (in CCO) 395 nm; (in CN(C)C=O) 395 nm; (in Cc1ccccc1) 400 nm; (in ClCCl) 396 nm.

`CN(CC(O)c1cccc(O)c1)c1ccc([N+](=O)[O-])c(C2CC(c3cccc4ccccc34)=NN2c2ccccc2)c1` (centres undefined) registered an absorption maximum (in C1CCCCC1) of 400 nm; an absorption maximum (in C1CCOC1) of 411 nm; an absorption maximum (in C1COCCO1) of 396 nm; an absorption maximum (in CC#N) of 402 nm; an absorption maximum (in CC(C)O) of 412 nm; an absorption maximum (in CCOC(C)=O) of 418 nm. For the same compound, the absorption maximum is 405 nm (in CCOCC); 409 nm (in CO); 414 nm (in Cc1ccccc1); 369 nm (in ClC(Cl)Cl); 406 nm (in O).

As for `N#CC(C#N)=Cc1ccc2c(c1)[nH]c1c3ccccc3ccc21`, the absorption maximum (in ClCCl) came out at 436 nm.

The compound `O=C(O)c1ccc(-c2cnc(-c3ccc(N(c4ccccc4)c4ccccc4)cc3)s2)cc1` gave an absorption maximum (in CO) of 387 nm.

As to `CCCCCCCCCCn1c(-c2cc(-c3nc4ccc(C)cc4n3CCCCCCCCCC)cc(-c3nc4ccc(C)cc4n3CCCCCCCCCC)c2)nc2ccc(C)cc21`, the absorption maximum (in ClCCl) was found to be 307.5 nm.

`COc1ccc2c(c1)SC1=Nc3sc4cc(OC)ccc4[n+]3CN12` came in with an absorption maximum (in CO) of 405 nm.

In turn, `Cc1nc2c(ccc3ccc(O)cc32)oc1=O` returned an absorption maximum (in c1ccccc1) of 370 nm.

As to `BrCCCCCCCCCCCCOc1cc2ccc3cccc4ccc(c1)c2c34`, where the note is “in Cc1ccccc1”, the absorption maximum is 384 nm.

`CCOC(=O)c1c2c3c(ccc(C)c3c3cc4ccccc4cc13)N(C)C2=O` displayed an absorption maximum (in CC#N) of 404 nm.

`c1ccc(-c2nc(-c3ccc(N4c5ccccc5C(c5ccccc5)(c5ccccc5)c5ccccc54)cc3)cc(-c3ccccn3)n2)cc1` came in with an absorption maximum (in Cc1ccccc1) of 371.33 nm.

Compound `CCCCCn1c2ccc(S(=O)(=O)O)cc2c(=O)c2cc(S(=O)(=O)O)ccc21` displayed an absorption maximum (in CS(C)=O) of 406 nm and an absorption maximum (in O) of 406 nm.

For the setting “in CCO”, `CN1c2cc3nc4cc(F)c(F)cc4nc3cc2N(C)C1(C)C` yielded an absorption maximum of 457 nm.

Under “in ClC(Cl)Cl”, `COc1cc(OC)c2cc(-c3ccccc3CC#N)c(=O)oc2c1` yielded an absorption maximum of 342 nm.

In turn, `Cc1sc(Cl)cc1-c1nc(-c2ccc(Cl)cc2)[nH]c1-c1cc(Cl)sc1C` yielded an absorption maximum (in CC#N) of 309 nm.

`C(=C\c1cc[n+](Cc2ccccc2)cc1)/c1cc[n+](Cc2ccccc2)cc1` displayed an absorption maximum (in CC#N) of 324 nm.

As for `Cc1ccc(N(c2ccc(C)cc2)c2ccc(Oc3nnc(Cl)nn3)cc2)cc1`, under “in ClCCl”, the absorption maximum was found to be 523 nm.

On to `CC1(C)C(/C=C/C2=C(Cl)C(=C/C=C3/N(Cc4ccc(C(=O)O)cc4)c4ccccc4C3(C)C)/CCC2)=[N+](Cc2ccc(C(=O)O)cc2)c2ccccc21`, for which, for the setting “in CO”, the absorption maximum came to 786 nm.

Take `CC(=O)Nc1ccc(O)cc1`: the absorption maximum reads like this: (in C1CCOC1) 293 nm; (in CC#N) 290 nm; (in CCCCO) 290 nm; (in CO) 290 nm; (in CS(C)=O) 293 nm.

With `COc1cc2cc(OC)c(-c3ccc([N+](=O)[O-])cc3)cc2cc1-c1ccc([N+](=O)[O-])cc1`, the absorption maximum reads like this: (in ClC(Cl)Cl) 336 nm; (in ClCCl) 337 nm.

Compound `CCCCCCC1(CCCCCC)c2cc(-c3nc(-c4ccc5c(c4)C(CCCCCC)(CCCCCC)c4cc(N6c7ccccc7Oc7ccccc76)ccc4-5)nc(-c4ccc5c(c4)C(CCCCCC)(CCCCCC)c4cc(N6c7ccccc7Oc7ccccc76)ccc4-5)n3)ccc2-c2ccc(N3c4ccccc4Oc4ccccc43)cc21` had an absorption maximum (in C1CCOC1) of 391 nm.

`C(#Cc1ccc2ncsc2c1)c1ccc(N(c2ccc(C#Cc3ccc4ncsc4c3)cc2)c2ccc(C#Cc3ccc4ncsc4c3)cc2)cc1` showed an absorption maximum (in Cc1ccccc1) of 380 nm.
